From patent US6593273B2, “Method for reducing pest damage to corn by treating transgenic corn seeds with pesticide” (priority 2000, dated 2003)

System: western and northern corn rootworm
Assay: Field trial (Example 3): corn rootworm damage by Iowa class, percent of control and synergy threshold
Assay type: in vivo
Procedure: The determination of damage by corn rootworm was made according to the following protocol. At stage V4-V6, an evaluation of early stand was made by counting the number of plants per acre. At stage VT-R1, an evaluation of corn rootworm damage was carried out by methods that are well known in the industry, and damage by corn rootworm was reported according to the Iowa 1-6 rating system. In that system, the root systems of 10 corn plants per plot are recovered and scored using the 1-6 rating scale, where: 1=no injury or only a few minor feeding scars, 2=feeding injury evident, but no roots eaten back to 1½ inches of the plant, 3=at least one root eaten off to within 1½ inches of the plant, but never an entire node of roots destroyed, 4=one node of roots eaten back to within 1½ inches of the plant, 5=two nodes (circles) of roots eaten back to within 1½ inches of the plant, 6=three nodes (circles) of roots eaten back to within 1½ inches of the plant.
A field trial was run in accordance with pertinent protocols and in conformance with USDA notification requirements. The purpose of the trial was to determine the efficacy of transgenic event Cry3Bb.11231 in corn seed in combination with corn rootworm seed treatments using imidacloprid.
For each growing site that was selected, the plot design included the following:
The following seed treatment combinations were used for each growing area:
All seed treatments with pesticides were carried out as described in Example 1. In seed treatment number 1 and 2, Gaucho® was used for wire worm protection, but at levels sufficiently low that it would be expected to have no effect on corn rootworms (i.e., at a treatment level of about 60 gm of active/100 kg seed or 0.16 mg active/kernel), otherwise, seed receiving treatment number 2 had only transgenic event Cry3Bb.11231 and no pesticide treatment that would be expected to be effective against corn rootworm.
For seeds having treatments numbered 3 through 5, the pesticides were applied by the methods described in Example 1. For seeds having treatment numbers 6 and 7, commercially available Force® 3G and Lorsban® 15G were applied to the soil in a 5″ band at the time of sowing. The levels of application are as shown and are within the ranges recommended for standard commercial practice.
Corn seeds to be tested were planted and grown at four different locations across several Midwestern states in the United States corn belt according to the protocol described above.
The determination of damage by corn root worm was made according to the protocol described in Example 2.
The combination of imidacloprid seed treatment with corn seed having a Cry3Bb.11231 transgenic event was tested for possible synergy at a level of rootworm damage of 3-6. In the first test, shown in Table 2(A), the percentage of test plants having damage levels of from 3 to 6, on the Iowa 1-6 Scale, was determined for the control and for seeds treated with the pesticide at two levels, and for seeds having the transgenic event, alone and in combination. The following formula was then used to calculate a “synergy threshold”:
(% of control Cry3Bb.11231)*(% of control imidacloprid treatment)/100.
This threshold was compared against the percent of control for the treatment combination (i.e., Cry3Bb.11231 with imidacloprid @ 400 gm/100 kg). If the treatment combination percent of control was below the threshold, then it was concluded that there was synergy.
It was believed that the measurement of rootworm damage at higher damage levels (i.e., levels 3-6) is a useful indicator that correlates with subsequent yield loss due to such damage. The reason for this is that rootworm damage at levels 1 and 2 seldom causes corn plants to fall over and lodge, and such minimal root loss is not believed to reduce the number or weight of kernels per ear. However, root damage at levels of 3 and above increasingly causes lodging and loss of yield. […]

SMILES: O=[N+]([O-])NC1=NCCN1Cc1ccc(Cl)nc1 [Imidacloprid, 1-[(6-chloro-3-pyridinyl)methol]-N-nitro-2-imidazolidinimime]
- PERCENT OF CONTROL (Table 2(A), plants with damage levels 3-6 relative to isohybrid control, imidacloprid @ 400 g/100 kg of seed): 80.5%
- NUMBER OF PLANTS HAVING 3-6 DAMAGE LEVEL (Table 2(B), Iowa 1-6 Scale levels 3-6, imidacloprid @ 400 gm/100 kg): 71.7
- PERCENT OF CONTROL (Table 2(B), damage levels 3-6 relative to untreated control, imidacloprid @ 400 gm/100 kg): 80.5%
- protection against corn rootworm damage (in words) (imidacloprid at 400 gm/100 kg of seed): effective against corn rootworm damage
- CORN ROOTWORM DAMAGE IN EACH IOWA CLASS (IOWA 1-6 SCALE): 1 (plants in Iowa class 1, imidacloprid @ 400 g/100 kg of seed, FORCE and LORSBAN as surface band at planting): 3
- CORN ROOTWORM DAMAGE IN EACH IOWA CLASS (IOWA 1-6 SCALE): 2 (plants in Iowa class 2, imidacloprid @ 400 g/100 kg of seed, FORCE and LORSBAN as surface band at planting): 15
- CORN ROOTWORM DAMAGE IN EACH IOWA CLASS (IOWA 1-6 SCALE): 3 (plants in Iowa class 3, imidacloprid @ 400 g/100 kg of seed, FORCE and LORSBAN as surface band at planting): 36
- CORN ROOTWORM DAMAGE IN EACH IOWA CLASS (IOWA 1-6 SCALE): 4 (plants in Iowa class 4, imidacloprid @ 400 g/100 kg of seed, FORCE and LORSBAN as surface band at planting): 21
- CORN ROOTWORM DAMAGE IN EACH IOWA CLASS (IOWA 1-6 SCALE): 5 (plants in Iowa class 5, imidacloprid @ 400 g/100 kg of seed, FORCE and LORSBAN as surface band at planting): 5
- CORN ROOTWORM DAMAGE IN EACH IOWA CLASS (IOWA 1-6 SCALE): 6 (plants in Iowa class 6, imidacloprid @ 400 g/100 kg of seed, FORCE and LORSBAN as surface band at planting): 0
